# Active and inactive are the calls of the source.
# Legend:
# [1] = target: T1, RNA-binding protein pos-1 (Caenorhabditis elegans, UniProt G5EF15); assay: inhibitors of POS-1/mex-3 RNA binding, dose response, biochemical, fluorescence polarization (AID 1964);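 also: purified POS-1 fused to maltose binding protein made in E. coli; potency of compounds blocking POS-1 binding to fluorescent RNA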
# T1 sequence (G5EF15 whole entry): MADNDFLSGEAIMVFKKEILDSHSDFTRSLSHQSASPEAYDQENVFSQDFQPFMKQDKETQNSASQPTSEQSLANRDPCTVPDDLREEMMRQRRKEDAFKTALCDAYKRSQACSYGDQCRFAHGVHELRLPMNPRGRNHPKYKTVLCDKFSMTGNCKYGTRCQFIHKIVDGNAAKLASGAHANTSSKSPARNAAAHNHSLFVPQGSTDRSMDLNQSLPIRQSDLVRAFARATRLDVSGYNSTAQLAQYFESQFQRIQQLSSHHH
# [2] = target: T2, Zinc finger protein mex-5 (Caenorhabditis elegans, UniProt Q9XUB2); assay: MEX-5/TCR-2 RNA interaction inhibitors, dose response, biochemical, C. elegans, fluorescence polarization (AID 1960)
# T2 sequence (Q9XUB2 whole entry): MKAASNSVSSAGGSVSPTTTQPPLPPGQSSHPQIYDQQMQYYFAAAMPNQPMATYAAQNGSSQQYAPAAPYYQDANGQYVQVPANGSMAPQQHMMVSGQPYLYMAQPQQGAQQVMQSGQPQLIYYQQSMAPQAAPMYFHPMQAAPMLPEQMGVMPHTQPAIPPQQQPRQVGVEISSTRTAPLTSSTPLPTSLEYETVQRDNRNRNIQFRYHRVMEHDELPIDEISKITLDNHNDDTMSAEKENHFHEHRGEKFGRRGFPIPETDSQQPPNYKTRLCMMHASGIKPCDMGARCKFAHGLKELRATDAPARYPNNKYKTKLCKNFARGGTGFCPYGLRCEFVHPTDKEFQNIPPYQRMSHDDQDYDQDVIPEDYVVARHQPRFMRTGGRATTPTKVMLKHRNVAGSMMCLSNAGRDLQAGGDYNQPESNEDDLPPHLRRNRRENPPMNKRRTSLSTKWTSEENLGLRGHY
# [3] = target: Peroxisome proliferator-activated receptor gamma (Homo sapiens, UniProt P37231); assay: PPARg partial agonists, dose response, cell-based, luminescence, assay provider (AID 504447); format: functional
# [4] = target: T3, Corticotropin-releasing factor receptor 2/Corticotropin-releasing factor-binding protein (Homo sapiens, UniProt P24387+Q13324); assay: activators of CRF receptor 2 with binding protein – uHTS hits, confirmation (AID 602473); format: functional; details: read-out: EC50_Mean
# T3 sequence (Q13324 whole entry): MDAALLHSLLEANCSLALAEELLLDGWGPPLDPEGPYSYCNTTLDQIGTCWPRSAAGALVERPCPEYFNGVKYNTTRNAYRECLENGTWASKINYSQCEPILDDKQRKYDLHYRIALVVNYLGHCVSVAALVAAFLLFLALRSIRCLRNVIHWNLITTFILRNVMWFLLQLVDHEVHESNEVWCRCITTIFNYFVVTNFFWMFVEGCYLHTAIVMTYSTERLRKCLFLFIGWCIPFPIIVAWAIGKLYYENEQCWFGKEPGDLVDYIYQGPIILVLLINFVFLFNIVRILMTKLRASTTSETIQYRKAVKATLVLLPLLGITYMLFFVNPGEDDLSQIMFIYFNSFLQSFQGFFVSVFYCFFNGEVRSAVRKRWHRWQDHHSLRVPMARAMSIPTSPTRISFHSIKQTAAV
# T3 sequence (P24387 whole entry): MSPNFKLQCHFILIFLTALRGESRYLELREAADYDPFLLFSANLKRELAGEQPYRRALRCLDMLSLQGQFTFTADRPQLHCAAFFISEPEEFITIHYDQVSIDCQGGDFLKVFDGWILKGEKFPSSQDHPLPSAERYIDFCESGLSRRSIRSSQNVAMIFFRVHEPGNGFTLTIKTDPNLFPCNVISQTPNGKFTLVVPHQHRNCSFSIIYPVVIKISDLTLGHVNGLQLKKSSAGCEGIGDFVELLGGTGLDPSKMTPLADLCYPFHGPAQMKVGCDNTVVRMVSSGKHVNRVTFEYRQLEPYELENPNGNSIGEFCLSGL
# [5] = target: Large T antigen (Simian virus 40, UniProt P03070); format: functional, Betapolyomavirus macacae;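 also: Confirmatory-stage PubChem screen for compounds that inhibit SV40 T antigen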
# [6] = target: Induced myeloid leukemia cell differentiation protein Mcl-1 (Homo sapiens, UniProt Q07820); assay: MCL1-BIM BH3 interaction inhibitors, dose response, biochemical, fluorescence polarization, BIM-BH3 peptide, 1536-well (AID 2217)
# [7] = target: Bcl-2-like protein 1 (Homo sapiens, UniProt Q07817); assay: BCL-XL inhibitors, dose response, selectivity assay for MCL1 inhibitor project, biochemical, fluorescence polarization, 1536-well (AID 2218)
# [8] = target: Glucose-6-phosphate 1-dehydrogenase (Homo sapiens, UniProt P11413); assay: human G6PD enzyme inhibitors, dose response, selectivity assay for P. falciparum G6PD inhibitor project, biochemical, fluorescence (AID 504792); format: functional
# [9] = target: Intestinal-type alkaline phosphatase (Homo sapiens, UniProt P09923); assay: activation of human intestinal alkaline phosphatase – biochemical, dose response (AID 488873); format: functional
# [10] = target: Intestinal-type alkaline phosphatase (Mus musculus, UniProt P24822); assay: mouse intestinal alkaline phosphatase activators, dose response, biochemical, luminescence, uHTS hits (AID 488783); format: functional
# [11] = target: T4, Alkaline phosphatase, tissue-nonspecific isozyme (Homo sapiens, UniProt P05186); assay: TNAP enzyme activators, dose response, selectivity assay for mouse IAP activator project, biochemical, TNAP isozyme, mouse IAP uHTS hits (AID 488880); format: functional
# T4 sequence (P05186 whole entry): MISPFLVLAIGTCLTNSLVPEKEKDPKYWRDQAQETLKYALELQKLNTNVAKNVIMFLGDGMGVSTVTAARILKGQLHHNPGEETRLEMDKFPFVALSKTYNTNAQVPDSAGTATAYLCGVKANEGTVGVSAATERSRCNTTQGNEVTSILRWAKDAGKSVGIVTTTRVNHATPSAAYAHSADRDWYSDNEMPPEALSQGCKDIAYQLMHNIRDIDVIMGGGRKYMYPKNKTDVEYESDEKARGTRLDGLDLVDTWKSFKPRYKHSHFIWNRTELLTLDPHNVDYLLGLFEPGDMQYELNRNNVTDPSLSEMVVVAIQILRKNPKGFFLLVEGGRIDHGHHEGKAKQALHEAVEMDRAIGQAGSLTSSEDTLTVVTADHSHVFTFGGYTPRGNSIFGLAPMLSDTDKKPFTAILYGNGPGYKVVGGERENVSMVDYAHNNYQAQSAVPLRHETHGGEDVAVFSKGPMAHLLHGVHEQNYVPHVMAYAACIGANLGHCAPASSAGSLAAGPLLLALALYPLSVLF
# [12] = target: Heat shock protein HSP 90-alpha (Homo sapiens, UniProt P07900); format: functional, organism-based
# [13] = test system: Vero; assay: cells; format: functional; details: Chlorocebus sabaeus
# [14] = target: SUMO-activating enzyme (Homo sapiens, UniProt Q9UBT2); assay: SUMOylation inhibitor hit validation, confirmation, SUMOylation inhibitor project, biochemical, AlphaScreen (AID 2018); format: functional
# [15] = target: Troponin, cardiac muscle (Homo sapiens, UniProt P19429+P45379+P63316); assay: Fluorescence-based biochemical high throughput dose response assay for activators of the calcium sensitivity of cardiac Regulated Thin Filaments (RTF). [Related pubchem assays (depositor defined):AID493008, AID493018, AID504382, AID504383]; format: protein-complex assay
# Sequence of Induced myeloid leukemia cell differentiation protein Mcl-1 (Q07820 whole entry): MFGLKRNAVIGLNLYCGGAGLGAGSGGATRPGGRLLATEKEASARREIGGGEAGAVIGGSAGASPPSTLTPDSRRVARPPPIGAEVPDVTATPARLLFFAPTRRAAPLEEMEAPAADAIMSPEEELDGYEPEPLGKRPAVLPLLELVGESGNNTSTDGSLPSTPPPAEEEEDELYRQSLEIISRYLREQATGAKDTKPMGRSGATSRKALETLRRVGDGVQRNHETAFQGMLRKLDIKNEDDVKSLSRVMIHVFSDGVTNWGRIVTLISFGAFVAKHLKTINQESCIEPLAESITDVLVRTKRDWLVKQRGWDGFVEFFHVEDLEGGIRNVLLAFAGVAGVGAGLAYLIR
# Sequence of Peroxisome proliferator-activated receptor gamma (P37231 whole entry): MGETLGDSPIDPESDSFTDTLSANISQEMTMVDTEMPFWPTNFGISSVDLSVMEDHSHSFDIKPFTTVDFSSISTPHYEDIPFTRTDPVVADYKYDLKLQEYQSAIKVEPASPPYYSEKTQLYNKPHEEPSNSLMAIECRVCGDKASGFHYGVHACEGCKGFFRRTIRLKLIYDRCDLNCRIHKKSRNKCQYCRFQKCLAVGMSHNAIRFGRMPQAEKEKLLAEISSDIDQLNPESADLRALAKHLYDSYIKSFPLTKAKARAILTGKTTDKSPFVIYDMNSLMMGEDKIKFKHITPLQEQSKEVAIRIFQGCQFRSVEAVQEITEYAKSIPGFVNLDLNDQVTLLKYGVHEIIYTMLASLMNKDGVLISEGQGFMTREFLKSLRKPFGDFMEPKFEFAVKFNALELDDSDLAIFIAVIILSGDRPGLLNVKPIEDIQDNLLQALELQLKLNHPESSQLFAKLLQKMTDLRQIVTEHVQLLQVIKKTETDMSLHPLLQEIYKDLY
# Sequence of Bcl-2-like protein 1 (Q07817 whole entry): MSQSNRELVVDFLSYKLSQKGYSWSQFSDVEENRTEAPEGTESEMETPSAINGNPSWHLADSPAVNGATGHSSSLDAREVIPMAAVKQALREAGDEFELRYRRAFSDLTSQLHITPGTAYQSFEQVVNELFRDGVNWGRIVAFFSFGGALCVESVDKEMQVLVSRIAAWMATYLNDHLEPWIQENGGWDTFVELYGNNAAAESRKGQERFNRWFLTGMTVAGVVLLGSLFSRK
# Sequence of Large T antigen (P03070 whole entry): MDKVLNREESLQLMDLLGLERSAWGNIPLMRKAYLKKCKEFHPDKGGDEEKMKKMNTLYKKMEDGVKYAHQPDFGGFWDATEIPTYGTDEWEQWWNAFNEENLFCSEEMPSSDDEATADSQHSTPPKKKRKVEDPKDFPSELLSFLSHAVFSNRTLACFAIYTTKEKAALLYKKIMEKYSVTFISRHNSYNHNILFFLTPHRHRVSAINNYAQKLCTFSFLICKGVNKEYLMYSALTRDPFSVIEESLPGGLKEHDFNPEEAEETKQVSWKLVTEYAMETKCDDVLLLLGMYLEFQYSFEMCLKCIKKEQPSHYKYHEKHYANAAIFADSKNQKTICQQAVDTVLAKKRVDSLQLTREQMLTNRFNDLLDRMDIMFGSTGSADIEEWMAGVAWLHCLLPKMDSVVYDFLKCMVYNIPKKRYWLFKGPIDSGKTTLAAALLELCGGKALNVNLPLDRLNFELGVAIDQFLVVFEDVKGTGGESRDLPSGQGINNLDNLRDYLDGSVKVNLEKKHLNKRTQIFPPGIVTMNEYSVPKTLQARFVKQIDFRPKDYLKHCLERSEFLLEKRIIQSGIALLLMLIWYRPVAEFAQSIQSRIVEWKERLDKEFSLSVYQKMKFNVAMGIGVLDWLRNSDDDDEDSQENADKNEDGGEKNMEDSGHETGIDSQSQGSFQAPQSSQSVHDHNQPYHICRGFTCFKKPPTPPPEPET
# Sequence of SUMO-activating enzyme (Q9UBE0 whole entry): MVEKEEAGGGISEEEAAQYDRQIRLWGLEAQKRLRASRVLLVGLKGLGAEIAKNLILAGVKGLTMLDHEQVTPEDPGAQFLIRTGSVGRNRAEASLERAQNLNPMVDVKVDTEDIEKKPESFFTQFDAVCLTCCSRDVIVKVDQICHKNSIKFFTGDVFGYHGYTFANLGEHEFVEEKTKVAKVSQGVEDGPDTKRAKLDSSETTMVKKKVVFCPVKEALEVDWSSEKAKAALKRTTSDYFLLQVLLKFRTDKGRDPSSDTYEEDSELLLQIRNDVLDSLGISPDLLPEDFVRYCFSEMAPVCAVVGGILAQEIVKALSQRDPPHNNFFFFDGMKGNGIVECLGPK
# Sequence of SUMO-activating enzyme (Q9UBT2 whole entry): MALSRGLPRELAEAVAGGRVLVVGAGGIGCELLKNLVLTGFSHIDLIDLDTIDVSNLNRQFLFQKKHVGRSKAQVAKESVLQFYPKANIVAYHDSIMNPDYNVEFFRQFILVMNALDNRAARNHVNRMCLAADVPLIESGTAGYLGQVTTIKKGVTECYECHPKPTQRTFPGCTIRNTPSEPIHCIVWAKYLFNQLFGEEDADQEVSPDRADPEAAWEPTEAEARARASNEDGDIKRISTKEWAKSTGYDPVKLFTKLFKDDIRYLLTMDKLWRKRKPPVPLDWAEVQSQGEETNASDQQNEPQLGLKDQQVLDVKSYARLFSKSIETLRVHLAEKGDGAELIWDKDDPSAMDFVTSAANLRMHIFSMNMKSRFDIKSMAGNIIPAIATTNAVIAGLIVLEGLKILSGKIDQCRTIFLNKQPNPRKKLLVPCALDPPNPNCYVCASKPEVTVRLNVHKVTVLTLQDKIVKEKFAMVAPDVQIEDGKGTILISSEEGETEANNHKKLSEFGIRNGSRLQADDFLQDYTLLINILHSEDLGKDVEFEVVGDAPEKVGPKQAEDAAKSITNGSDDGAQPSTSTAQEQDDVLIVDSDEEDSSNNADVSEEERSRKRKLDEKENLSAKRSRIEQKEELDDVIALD
# Sequence of Glucose-6-phosphate 1-dehydrogenase (P11413 whole entry): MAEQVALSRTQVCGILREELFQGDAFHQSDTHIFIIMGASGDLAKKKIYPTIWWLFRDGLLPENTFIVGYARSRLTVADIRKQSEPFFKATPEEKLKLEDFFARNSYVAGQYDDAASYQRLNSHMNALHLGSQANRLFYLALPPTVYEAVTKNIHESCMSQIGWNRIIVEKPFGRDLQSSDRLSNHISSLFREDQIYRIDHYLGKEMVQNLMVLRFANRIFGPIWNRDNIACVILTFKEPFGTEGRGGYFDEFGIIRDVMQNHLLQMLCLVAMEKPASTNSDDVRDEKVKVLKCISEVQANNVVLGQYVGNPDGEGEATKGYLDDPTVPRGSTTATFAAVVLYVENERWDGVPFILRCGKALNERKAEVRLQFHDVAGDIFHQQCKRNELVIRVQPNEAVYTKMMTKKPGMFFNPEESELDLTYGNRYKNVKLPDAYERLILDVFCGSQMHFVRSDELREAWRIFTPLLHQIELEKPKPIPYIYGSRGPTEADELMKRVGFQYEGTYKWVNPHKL
# Sequence of Intestinal-type alkaline phosphatase (Homo sapiens, UniProt P09923) (P09923 whole entry): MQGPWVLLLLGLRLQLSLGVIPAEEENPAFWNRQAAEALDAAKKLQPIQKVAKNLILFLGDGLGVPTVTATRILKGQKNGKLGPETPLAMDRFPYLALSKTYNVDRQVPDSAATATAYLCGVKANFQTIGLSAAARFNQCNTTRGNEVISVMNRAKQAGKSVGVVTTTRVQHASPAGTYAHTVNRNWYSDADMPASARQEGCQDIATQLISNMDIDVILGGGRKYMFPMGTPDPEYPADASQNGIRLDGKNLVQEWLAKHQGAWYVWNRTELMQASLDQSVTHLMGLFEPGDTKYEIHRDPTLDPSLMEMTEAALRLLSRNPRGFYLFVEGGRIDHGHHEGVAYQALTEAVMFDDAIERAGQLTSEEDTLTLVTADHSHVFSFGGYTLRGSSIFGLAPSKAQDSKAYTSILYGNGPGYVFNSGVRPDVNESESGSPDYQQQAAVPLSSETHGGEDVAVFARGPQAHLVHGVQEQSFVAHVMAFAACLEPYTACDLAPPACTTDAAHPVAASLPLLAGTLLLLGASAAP
# Sequence of Intestinal-type alkaline phosphatase (Mus musculus, UniProt P24822) (P24822 whole entry): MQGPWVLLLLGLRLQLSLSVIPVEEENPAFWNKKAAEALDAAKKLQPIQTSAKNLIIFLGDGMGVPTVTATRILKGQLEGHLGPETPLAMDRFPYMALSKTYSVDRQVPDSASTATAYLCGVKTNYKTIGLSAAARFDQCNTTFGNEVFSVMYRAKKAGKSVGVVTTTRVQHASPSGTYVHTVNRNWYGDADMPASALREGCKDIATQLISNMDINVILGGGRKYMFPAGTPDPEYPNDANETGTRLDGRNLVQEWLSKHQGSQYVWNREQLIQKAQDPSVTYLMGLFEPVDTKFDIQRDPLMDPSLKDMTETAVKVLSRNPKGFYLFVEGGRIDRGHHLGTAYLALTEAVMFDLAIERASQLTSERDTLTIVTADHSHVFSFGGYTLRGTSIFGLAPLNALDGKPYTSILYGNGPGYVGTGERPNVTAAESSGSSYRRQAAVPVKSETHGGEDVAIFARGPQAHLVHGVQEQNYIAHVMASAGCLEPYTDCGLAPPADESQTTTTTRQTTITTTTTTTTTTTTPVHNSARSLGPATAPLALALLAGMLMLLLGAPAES
smiles,measurement,setting,value
COc1ccccc1N1C(=O)C2C(C(=O)c3ccccc3)=NN(c3ccc(C)cc3)C2C1=O (stereo not given),EC50,[1],13.7 µM (inconclusive)
same,EC50,[2],14.3 µM (active)
same,EC50,[3],1.7 µM (active)
same,EC50,[4],5.27 µM (active)
O=C1NC(=S)NC(=O)C1=Cc1ccc(Br)s1,IC50,[5],64.5 µM (active)
same,IC50,[6],> 12.1 µM (not active)
same,IC50,[7],> 109 µM (not active)
same,IC50,[8],36.4 µM (inactive)
same,EC50,[9],76.8 µM (active)
same,EC50,[10],59.7 µM (active)
same,EC50,[11],61.6 µM (active)
same,AC50,[12],25.6 µM (active)
same,CC50,[13],21.4 µM (active)
Cn1c2ccccc2c2cnn(CC(=O)Nc3ccc(Cl)cc3)c(=O)c21,IC50,[14],46 µM (active)
O=C(O)CCC(=O)Nc1cc(C(F)(F)F)cc(C(F)(F)F)c1,EC50,[15],> 71.4 µM (inactive)

# Reference: ChEMBL document CHEMBL1201862, “PubChem BioAssay data set” (2004)
